The text below walks through data of patent US20080044844A1 (priority 2004, published 2008).

Read-outs that look alike come from different tables or passages of the source.

The test system of series [1] is E. coli luxCDABE promoter fusion library. Format: cell-based.
In series [2] the test system is MipA promoter. Format: cell-based, E. coli.
The test system of the next series is LacAYZ promoter. Format: cell-based, E. coli.
Another series relates to lacZ promoter. Format: cell-based, E. coli.
Series [3] concerns MipA promoter. Format: cell-based, E. coli. The source holds these as a separate data set.
In the next series the test system is (AP-1-STRE)*2. Format: cell-based, Saccharomyces cerevisiae.
In the next series the test system is STRE. Format: cell-based, Saccharomyces cerevisiae.
For series [4] the following is noted: rat, in vivo, po; cited from earlier work.
Series [5] has as its system Fiu promoter. Format: cell-based, E. coli.
Series [6] has as its system GrpE promoter. Format: cell-based, E. coli.
For the next series, the system named is otsAB promoter. Format: cell-based, E. coli.
Another series relates to yciD promoter. Format: cell-based, E. coli.
Series [7] concerns GrpE promoter. Format: cell-based, E. coli. The source holds these as a separate data set.
The subject of series [8] is Fiu promoter. Format: cell-based, E. coli. The source holds these as a separate data set.
Another series concerns nhoA promoter. Format: cell-based, E. coli.

Usually LD50 stands for the dose expected to kill half of the subjects tested. Take `CCOP(=S)(OCC)Oc1ccc([N+](=O)[O-])cc1` [Ethyl Parathion]: in series [1], the “share of library promoters with 0 < RRmax < 2” value (“share … with 0 < RRmax < 2” for short) is recorded as 89.6%, the “share of library promoters with 2 < RRmax < 3” value (“share … with 2 < RRmax < 3” for short) was determined as 6.3%, the “share of library promoters with 3 < RRmax < 5” value (“share … with 3 < RRmax < 5” for short) was 2.1% and the “share of library promoters with 5 < RRmax < 10” value (“share … with 5 < RRmax < 10” for short) came to 1.7%. The Cmax in the series on MipA promoter [2] worked out at 500 mg/L. In the series on LacAYZ promoter, the Cmax is 500 mg/L and the RRmax is reported as 8. In the series on lacZ promoter, this molecule registered a Cmax of 125 mg/L, an EC200 of 13.0 mg/L, an RRmax of 4.7 and a t200 of 120 min. Further, in the series on lacZ promoter, the “tmax (first value, time to reach RRmax)” value was 132/132 min; the “tmax (second value, time to reach ΔLmax)” value is given as 132/132 min; the ΔLmax is 47,776 RLU. Also, in the series on MipA promoter [3], the Cmax came out at 500 mg/L; the EC200 is given as 79.0 mg/L; the t200 is 60 min; the “tmax (first value, time to reach RRmax)” value is reported as 87/110 min. Further, in the series on MipA promoter [3], the “tmax (second value, time to reach ΔLmax)” value is listed as 87/110 min and the ΔLmax was 196,600 RLU. Further, in the series with (AP-1-STRE)*2, the fold higher response is 4-5 fold and the “time within which a response can be seen” value lay within 5 to 10 min. For the same molecule, in the series on STRE, the fold higher response was 4-5 fold and the “time within which a response can be seen” value fell in the range of 5 to 10 min. The median lethal dose (LD50) in series [4] is listed as 2 mg/kg.
In the series on lacZ promoter, `COC(=O)C=C(C)OP(=O)(OC)OC` [Phosdrin] displayed a Cmax of 180 mg/L, an EC200 of 38.3 mg/L, an RRmax of 3.7 and a t200 of 110 min. Also, in the series on lacZ promoter, the “tmax (first value, time to reach RRmax)” value was 120/120 min; the “tmax (second value, time to reach ΔLmax)” value is 120/120 min; the ΔLmax is on record as 12,900 RLU.
For the molecule `Oc1c(Cl)cccc1Cl` [2,6-Dichlorophenol], in the series with Fiu promoter [5], the Cmax was found to be 125 mg/L, the EC200 was determined as 16.0 mg/L, the RRmax was determined as 4.4 and the t200 turned out to be 31 min. Besides, in the series on Fiu promoter [5], the “tmax (first value, time to reach RRmax)” value is 30/120 min; the “tmax (second value, time to reach ΔLmax)” value is 30/120 min; the ΔLmax is reported as 25,553 RLU. In the series on GrpE promoter [6], this molecule showed a Cmax of 31 mg/L, an EC200 of 1.2 mg/L, an RRmax of 19.5 and a t200 of 29 min. Further, in the series with GrpE promoter [6], the “tmax (first value, time to reach RRmax)” value is 90/90 min; the “tmax (second value, time to reach ΔLmax)” value is reported as 90/90 min; the ΔLmax is 47,877 RLU.
For `CNC(=O)ON=C(C)SC` [Methomyl], in series [1], the “response of the library promoters to the toxicant (in words)” value (from here on “response of the library promoters”) was “very poor responses”, the “share … with 0 < RRmax < 2” value worked out at 90.1%, the “share … with 2 < RRmax < 3” value amounted to 7.1% and the “share … with 3 < RRmax < 5” value came to 2.0%. Besides, in [1], the “share … with 5 < RRmax < 10” value is 0.7% and the “share of library promoters with 10 < RRmax” value stood at 0.1%. In the series on otsAB promoter, this molecule returned a Cmax of 2000 mg/L and an RRmax of 3. For the same molecule, in the series on yciD promoter, the Cmax worked out at 2000 mg/L and the RRmax came to 2. Further, in series [4], the LD50 is recorded as 17 mg/kg.
With `CNC(=S)[S-].[Na+]` [Metham Sodium], in the series with lacZ promoter, the Cmax was 180 mg/L, the EC200 was determined as 20.0 mg/L, the RRmax worked out at 6.5 and the t200 is given as 90 min. Moreover, in the series on lacZ promoter, the “tmax (first value, time to reach RRmax)” value is 120/120 min; the “tmax (second value, time to reach ΔLmax)” value was 120/120 min; the ΔLmax was 30,468 RLU. In addition, in the series with MipA promoter [3], the Cmax came out at 180 mg/L, the EC200 is on record as 18.0 mg/L, the RRmax amounted to 5.9 and the t200 amounted to 100 min. Moreover, in the series on MipA promoter [3], the “tmax (first value, time to reach RRmax)” value is listed as 120/120 min; the “tmax (second value, time to reach ΔLmax)” value was 120/120 min; the ΔLmax is on record as 27,745 RLU.
For the molecule Botulinum Toxin A, in [1], the “response of the library promoters” value was “did not produce any response” and the “share … with 0 < RRmax < 2” value was 100%.
As for `COP(=O)(OC)OC=C(Cl)Cl` [DDVP, Dichlorvos], in [1], the “share … with 0 < RRmax < 2” value is given as 91.7%, the “share … with 2 < RRmax < 3” value is reported as 5.7%, the “share … with 3 < RRmax < 5” value was found to be 2.0% and the “share … with 5 < RRmax < 10” value is reported as 0.4%. This molecule registered a Cmax in the series with GrpE promoter [7] of 125 mg/L. In the series on Fiu promoter [8], the Cmax amounted to 500 mg/L and the RRmax is given as 5. In the series with GrpE promoter [6], the Cmax was 125 mg/L; the EC200 was determined as 32.5 mg/L; the t200 is recorded as 41 min; the “tmax (first value, time to reach RRmax)” value is 132/132 min. In addition, in the series on GrpE promoter [6], the “tmax (second value, time to reach ΔLmax)” value is on record as 132/132 min and the ΔLmax is given as 5,290 RLU.
As to `C[n+]1ccc(-c2cc[n+](C)cc2)cc1` [Paraquat], in [1], the “response of the library promoters” value is listed as “strongest inducer”, the “share … with 0 < RRmax < 2” value was 71.1%, the “share … with 2 < RRmax < 3” value amounted to 13.7% and the “share … with 3 < RRmax < 5” value was found to be 7.5%. Besides, in [1], the “share … with 5 < RRmax < 10” value worked out at 3.7% and the “share of library promoters with 10 < RRmax” value is given as 4%. In the series with LacAYZ promoter, this molecule registered a Cmax of 500 mg/L and an RRmax of 28. Further, in the series with nhoA promoter, the EC200 was found to be 0.43 mg/L; the t200 worked out at 21 min; the “tmax (first value, time to reach RRmax)” value is reported as 96/110 min; the “tmax (second value, time to reach ΔLmax)” value is 96/110 min. Moreover, in the series with nhoA promoter, the ΔLmax is listed as 146,342 RLU. In the series with lacZ promoter, this molecule gave a Cmax of 32.5 mg/L, an EC200 of 9.0 mg/L, an RRmax of 13.0 and a t200 of 85 min. For the same molecule, in the series on lacZ promoter, the “tmax (first value, time to reach RRmax)” value was 123/132 min; the “tmax (second value, time to reach ΔLmax)” value is listed as 123/132 min; the ΔLmax is listed as 253,421 RLU. In the series on Fiu promoter [5], this molecule came in with a Cmax of 250 mg/L, an EC200 of 9.8 mg/L, an RRmax of 16.9 and a t200 of 42 min. Also, in the series on Fiu promoter [5], the “tmax (first value, time to reach RRmax)” value was 120/60 min; the “tmax (second value, time to reach ΔLmax)” value was 120/60 min; the ΔLmax is listed as 29,591 RLU. Further, the LD50 in series [4] is listed as 150 mg/kg.
With `Oc1ccccc1Cl` [2-Chlorophenol], in the series on Fiu promoter [5], the Cmax was found to be 500 mg/L, the EC200 was 3.4 mg/L, the RRmax was determined as 5.8 and the t200 is 80 min. In addition, in the series with Fiu promoter [5], the “tmax (first value, time to reach RRmax)” value was 90/120 min; the “tmax (second value, time to reach ΔLmax)” value is 90/120 min; the ΔLmax is 11,971 RLU. In the series with GrpE promoter [6], the Cmax was determined as 250 mg/L, the EC200 stood at 2.8 mg/L, the RRmax is reported as 18.7 and the t200 is recorded as 32 min. Besides, in the series with GrpE promoter [6], the “tmax (first value, time to reach RRmax)” value is listed as 90/90 min; the “tmax (second value, time to reach ΔLmax)” value is 90/90 min; the ΔLmax is listed as 33,345 RLU.
As for `Oc1cc(Cl)c(Cl)cc1Cl` [2,4,5-Trichlorophenol], in the series on lacZ promoter, the Cmax is 31 mg/L, the EC200 is given as 0.8 mg/L, the RRmax stood at 16.1 and the t200 is given as 95 min. In addition, in the series with lacZ promoter, the “tmax (first value, time to reach RRmax)” value was 120/120 min; the “tmax (second value, time to reach ΔLmax)” value was 120/120 min; the ΔLmax is given as 74,832 RLU. For the same molecule, in the series with Fiu promoter [5], the Cmax turned out to be 31 mg/L, the EC200 was 1.2 mg/L, the RRmax was found to be 11.7 and the t200 is listed as 39 min. In the series on Fiu promoter [5], the “tmax (first value, time to reach RRmax)” value was 30/120 min; the “tmax (second value, time to reach ΔLmax)” value is given as 30/120 min; the ΔLmax is listed as 33,697 RLU. In the series with GrpE promoter [6], this molecule gave a Cmax of 31 mg/L, an EC200 of 1.0 mg/L, an RRmax of 22.1 and a t200 of 21 min. In the series with GrpE promoter [6], the “tmax (first value, time to reach RRmax)” value is 90/90 min; the “tmax (second value, time to reach ΔLmax)” value is 90/90 min; the ΔLmax is 54,432 RLU.
As to `COc1cc2c(c(OC)c1OC)-c1ccc(OC)c(=O)cc1[C@@H](NC(C)=O)CC2` [Colchicine], in the series with Fiu promoter [5], the Cmax stood at 45 mg/L, the EC200 is 14.3 mg/L, the RRmax was 4.0 and the t200 turned out to be 85 min. In addition, in the series with Fiu promoter [5], the “tmax (first value, time to reach RRmax)” value was 120/120 min; the “tmax (second value, time to reach ΔLmax)” value is recorded as 120/120 min; the ΔLmax was 1,924 RLU.
